The record followed here is patent US5773236A, “Assay for glutathiane transferase using polyhaloaryl-substituted reporter molecules” (Molecule Probes, Inc., priority 1997, dated 1998).

The subject of experiment [1] is 3T3 or BPAE cells. Nature of the experiment: Intracellular products of tracers by gel electrophoresis (Example 67). In kind it is cell-based. As to conditions: 5 μM, 1 hr, 37° C. As for the experimental part: (§1) Cultures of either 3T3 or BPAE cells are treated with 5 μM solutions of either Compound 4,5-(pentachlorobenzoylamino)fluorescein diacetate, 5-pentafluorobenzenesulfonylamino)fluorescein diacetate, or 5-chloromethylfluorescein diacetate (CMFDA, Molecular Probes, Inc.) for 1 hr at 37° C. The cells are spun, resuspended in distilled water and lysed by repeated freezing and thawing. 20 μL of the cell lysate supernatant is diluted with 30 μL of SDS-PAGE sample buffer, containing β-mercaptoethanol. The cell pellets are dispersed in 50 μL of water. 20 μL of each sample is added to 30 μL of the same sample buffer. The samples are heated at 95° C. for 5 min. and loaded on 4-20% polyacrylamide gradient minigels. At the completion of the run the gels are observed with UV excitation.

Experiment [2] relates to 3T3 or BPAE cells. Nature of the experiment: Intracellular products of tracers by TLC and HPLC (Example 67). In kind it is cell-based. As to conditions: 5 μM, 1 hr, 37° C. Here is the method:
Reaction mixtures with and without GST using Compound 1 as the substrate, are prepared as described in Example 48. The solutions are mixed overnight with three volumes of ethyl acetate followed by centrifugation at 15,000×g for 30 min to separate the organic and aqueous layers. HPLC analysis using a Rainin HPLC equipped with a C18, 5 μm, 100 Å, 4.6×250 mm MICROSORB-MV reverse phase column. Products are separated in 30 min with a gradient of 5% to 95% solvent B in Solvent A at a flow rate of 1 mL/min, where solvent A is 0.1M triethylammonium acetate, pH 7.0, and solvent B is acetonitrile (see FIG. 1). Products are detected by reading the absorbance at 500 nm. Peaks are identified and, if desired, quantitated by comparing retention times with authentic samples of the glutathione adduct of Compound 45 (Example 45).
as §1
Alternatively, the above samples are analyzed by TLC and by HPLC, as described in Examples 48 and 52. […] Coinjection with authentic Compound 1 confirms the identity of the substrate peak and coinjection with the authentic Compound 1-GSH adduct (Example 45) confirms the identify of the other fluorescent product.

The subject of experiment [3] is glutathione S-transferase. Nature of the experiment: Other derivatives tested as GSH/GST substrates, TLC (Example 54). As to conditions: 0.2-0.5 mM compound in 50 mM MOPS, pH 7.5, TLC. In kind it is biochemical. As for the experimental part: The reaction is then stopped by adding 10% H2 O2.
The PHA compound (ethanol stock solution, 2 mM) and reduced glutathione (phosphate buffer stock solution, 5 mM) are incubated under the same conditions as described above without addition of glutathione S-transferase.
Commercial precast silica gel TLC plates are used to follow both the enzymatic reaction and the blank control reaction. […] UV absorbance by the PHA substituent always permits detection of both the compound and any glutathione adduct by fluorescence quenching when the TLC sheet is illuminated with 254-nm radiation. Fluorescent compounds can be directly detected using appropriate UV or visible illumination. […] Furthermore, the intensity of the signal on the TLC sheet often can be enhanced by methods well known in the art, such as by application of a phosphomolybdate spray, iodine vapors or a similar detection reagent. Radioactive products can be directly detected and quantitated by exposure to a suitable film using methods well known in the art.

Experiment [4] deals with Bovine pulmonary aorta endothelial cells (BPAEC). Nature of the experiment: Glutathione adduct formation and fate of substrate in cultured animal cells, HPLC (Example 66). In kind it is cell-based. The following applies: BPAEC, up to 4 hours. Here is the method: The solutions are mixed overnight with three volumes of ethyl acetate followed by centrifugation at 15,000×g for 30 min to separate the organic and aqueous layers. HPLC analysis using a Rainin HPLC equipped with a C18, 5 μm, 100 Å, 4.6×250 mm MICROSORB-MV reverse phase column. […] Products are detected by reading the absorbance at 500 nm.
Bovine pulmonary aorta endothelial cells (BPAEC) are removed from flasks by trypsinization and washed into fresh complete growth medium to yield 10^6 cells/mL. […] Other aliquots of the cell suspension are loaded with the same substrates for 1 hour, rinsed into fresh complete medium, then incubated in the absence of substrate for an additional 3 hr at 37° C. to look for retention and efflux of fluorescent products. At the end of each incubation period the cells are removed by centrifugation and the supernate is retained. The cell pellets are resuspended in 1 mL of E-Pure water and subjected to three freeze-thaw cycles (-80° C. to 37° C.).

Molecules are shown by their SMILES. Structures can show the parent of a compound that is named as a salt.

In the case of `CC(=O)Oc1ccc2c(c1)Oc1cc(OC(C)=O)ccc1C21OC(=O)c2cc(NC(=O)c3c(Cl)c(Cl)c(Cl)c(Cl)c3Cl)ccc21` [5-(pentachlorobenzoylamino)fluorescein diacetate], in the experiment on 3T3 or BPAE cells [1], the “fluorescent bands on gel (region of the tracking dye)” value was “a single band in the region of the tracking dye” and the “protein adduct bands on gel” value was “do not shown a protein adduct”. For the same compound, in the experiment with 3T3 or BPAE cells [2], the “products by TLC” value is recorded as “Only a single, fast-moving fluorescent band corresponding to authentic 5-(pentachlorobenzoylamino)fluorescein”.

As for `CC(=O)Oc1ccc2c(c1)Oc1cc(OC(C)=O)ccc1C21OC(=O)c2cc(NS(=O)(=O)c3c(F)c(F)c(F)c(F)c3F)ccc21` [5-pentafluorobenzenesulfonylamino)fluorescein diacetate], in the experiment with 3T3 or BPAE cells [1], the “fluorescent bands on gel (region of the tracking dye)” value is “Two closely spaced green fluorescent bands” and the “protein adduct bands on gel” value is on record as “No other band corresponding to proteins is visible”. For the same compound, the “products by TLC” value in the experiment with 3T3 or BPAE cells [2] is recorded as “formation of a GSH adduct”.

Take `O=C(c1c(F)c(F)c(F)c(F)c1F)c1cc2ccc(O)cc2oc1=O` [7-hydroxy-3-(pentafluorobenzoyl)coumarin]: in experiment [3], the glutathione adducts detected entry is given as “detectable glutathione adducts”. `CC(=O)Oc1ccc2c(c1)Oc1cc(OC(C)=O)ccc1C21OC(=O)c2cc(CCl)ccc21` [CMFDA, 5-chloromethylfluorescein diacetate, reference compound]: the “protein adduct bands on gel” value in the experiment on 3T3 or BPAE cells [1] is given as “multiple fluorescent bands”. Also, the “products by HPLC” value with 3T3 or BPAE cells [2] (HPLC) is “the glutathione adduct and additional small peaks”. Moreover, in the experiment on 3T3 or BPAE cells [2], the “products by TLC” value is given as “multiple TLC bands”.

As for `O=C(c1c(F)c(F)c(F)c(F)c1F)N1CCN(C(=O)c2c3oc4cc(O)c(Cl)cc4nc-3ccc2=O)CC1` [Compound 17], the glutathione adducts detected result in experiment [3] is reported as “detectable glutathione adducts”.

`O=C(c1c(F)c(F)c(F)c(F)c1F)N1CCN(C(=O)c2c3oc4cc(O[C@@H]5O[C@H](CO)[C@H](O)[C@H](O)[C@H]5O)c(Cl)cc4nc-3ccc2=O)CC1` [Compound 22, 8-chloro-3,7-dihydroxy-4-(4-pentafluorobenzoyl-1-piperazinecarbonyl)phenoxazine β-D-galactopyranoside]: the glutathione adducts detected result in experiment [3] was “detectable glutathione adducts”. Consider `CN(C)c1ccc2c(c1)Oc1cc(N(C)C)ccc1C21OC(=O)c2cc(NC(=O)c3c(F)c(F)c(F)c(F)c3F)ccc21` [Compound 25, 5-(pentafluorobenzoylamino)tetramethylrhodamine], for which, in experiment [3], the glutathione adducts detected result was “detectable glutathione adducts”. The same measure, in the same setting: then `O=C(Nc1ccc2c(c1)C(=O)OC21c2ccc(O)cc2Oc2cc(O)ccc21)c1cc(F)c(F)c(F)c1` [Compound 26, 5-(3',4',5'-trifluorobenzoylamino)fluorescein], with “detectable glutathione adducts”. `O=C1OC2(c3ccc(O)cc3Oc3cc(O)ccc32)c2ccc(NC(=O)c3c(F)c(F)c(F)c(F)c3C(=O)O)cc21` [Compound 27, 5-(2'-carboxy-3',4',5',6'-tetrafluorobenzoylamino)fluorescein]: the glutathione adducts detected result in experiment [3] is recorded as “detectable glutathione adducts”. As to `O=C1OC2(c3ccc(O)cc3Oc3cc(O)ccc32)c2ccc(N3C(=O)c4c(F)c(F)c(F)c(F)c4C3=O)cc21` [Compound 28, 5-tetrafluorophthalimidylfluorescein], the glutathione adducts detected result in experiment [3] is on record as “detectable glutathione adducts”. `CCN(CC)c1ccc2c(CNC(=O)c3c(F)c(F)c(F)c(F)c3F)cc(=O)oc2c1` [Compound 29, 7-diethylamino-4-(((Pentafluorobenzoyl)amino)methyl)coumarin]: the glutathione adducts detected result in experiment [3] is on record as “detectable glutathione adducts”. Regarding `Cc1cc(C)n2c1C=C1C=CC(CCC(=O)NCCNC(=O)c3c(F)c(F)c(F)c(F)c3F)=[N+]1[B-]2(F)F` [Compound 30], the glutathione adducts detected result in experiment [3] was “detectable glutathione adducts”. In the case of `NCCNC(=O)c1c(F)c(F)c(F)c(F)c1F` [Compound 31, ((2-(pentafluorobenzoyl)amino)ethyl)ammonium trifluoroacetate], the glutathione adducts detected result in experiment [3] is reported as “detectable glutathione adducts”.

With `O=C(NCCNC(=O)c1cc2ccc(O)cc2oc1=O)c1c(F)c(F)c(F)c(F)c1F` [Compound 32, 7-hydroxy-3-((((2-(pentafluorobenzoyl)amino)ethyl)amino)carbonyl)coumarin], in experiment [3], the glutathione adducts detected result is reported as “detectable glutathione adducts”.

For `CN(C)c1ccc2c(CC(=O)NCCNC(=O)c3c(F)c(F)c(F)c(F)c3F)cc(=O)oc2c1` [Compound 40, 7-dimethylamino-4-(((((2-(pentafluorobenzoyl)amino)ethyl)amino)carbonyl)methyl)coumarin], the glutathione adducts detected entry in experiment [3] was “detectable glutathione adducts”. For the compound `O=c1oc2cc(O)ccc2cc1-c1c(F)c(F)c(F)c(F)c1F` [Compound 41, 7-hydroxy-3-pentafluorophenylcoumarin], the glutathione adducts detected result in experiment [3] is recorded as “detectable glutathione adducts”. Consider `O=C(c1c(F)c(F)c(F)c(F)c1F)c1cc2cc(F)c(O)c(F)c2oc1=O` [Compound 42, 6,8-difluoro-7-hydroxy-3-pentafluorobenzoylcoumarin], for which the glutathione adducts detected result in experiment [3] is given as “detectable glutathione adducts”. `O=c1[nH][nH]c(=O)c2c(F)c(F)c(F)c(F)c12` [Compound 43, tetrafluorophthalhydrazide]: in experiment [3], the glutathione adducts detected result is listed as “detectable glutathione adducts”.

As to `O=c1cc(-c2c(F)c(F)c(F)c(F)c2F)c2ccc(O)cc2o1` [Compound 44, 7-hydroxy-4-pentafluorophenylcoumarin], in experiment [3], the glutathione adducts detected entry is on record as “detectable glutathione adducts”. With `N[C@@H](CCC(=O)N[C@@H](CSc1c(F)c(F)c(C(=O)Nc2ccc3c(c2)C(=O)OC32c3ccc(O)cc3Oc3cc(O)ccc32)c(F)c1F)C(=O)NCC(=O)O)C(=O)O` [Compound 45, 5-(4'-(S-glutathionyl))-(2',3', 5',6'-tetrafluorobenzoylamino)fluorescein], the “retention of GSH adduct / fluorescence labeling in cells” value in experiment [4] is “rapidly removed from the cytoplasm of these BPAEC cells but a fraction of the fluorescence labeling is retained, even after 4 hours”.
